Test results taken from patent publication US20100047227A1, “NOVEL ANTICANCER CATHEPSIN FORMULATIONS AND ANTICANCER AGENT FOR USE IN COMBINED ANTICANCER THERAPY” (priority 2006, published 2010).
Square brackets hold non-standard residues; d marks the D form. Peptide text beside a SMILES is read from it. * marks the point of attachment. Sta = CC(C)C[C@H](N)[C@@H](O)CC(=O)O; Isovaleryl = CC(C)CC(=O)*; Cbz = O=C(OCc1ccccc1)*; CH2F = FC*

How the values were obtained:
Type in all cases: cell-based
[1] = test system: human prostate cancer ALVA-41 cells; experiment: survival rate of cells (Cell Counting Kit-8), ALVA-41 cells; conditions: for number of living cells: ALVA-41 cells, 20 hours
Description: The survival rate of cells was measured by Cell Counting Kit-8 in accordance with a manufacturer's manual. The method will be described briefly as follows. A 96-well (each 100 μl) plate was inoculated with cells (1×10^4 cells) and incubated for 24 hours, and the cells were incubated in a non-serum culture medium Opti-MEM together with a given concentration of each cathepsin purified from rat stomach (References #27 and #60-#62). Thereafter, the kit reagent (10 μl) was added to each well and the wells were incubated for another 1 hour. After incubation, each well was measured at the absorbance of 450 nm with a microplate reader.
(§1) In the figure, an indicating bar scale represents 50 μm. […] In the figure, an indicating bar scale represents 50 μm.
In this experiment, the survival rate of the ALVA-41 cells was measured by incubating the cells with cathepsin E of a given concentration in the presence or absence of pepstatin A (100 μM) at 37° C. and pH 7.4 for 20 hours. The data is represented as a percentage with respect to the value for non-treated cell group. The data were obtained as an average value±SD from the data obtained by four separate experiments. […] In this experiment, the HEK293 cells were incubated together with a given concentration of natural cathepsin E, wild-type recombinant and the active site mutant (D98A/D283A) at 37° C. and pH 7.4 for 20 hours. The survival rate of the cells was measured and represented as a percentage with respect to the value of the non-treated cell group. The data represents an average value±SD from the data obtained by four separate experiments. In the value, *p<0.001 is a corresponding value for the cells treated with the mutant. […] In this experiment, ALVA-41 cells were treated solely with cathepsin E of a given concentration in the same manner as for FIG. 2A and the culture supernatant was recovered, followed by centrifuging to remove the precipitate and transferring a portion ([…]) of the supernatant to a freshly prepared culture of ALVA-41 cells. Thereafter, the cells were incubated at 37° C. and pH 7.4 for 20 hours in the absence (black round mark) or presence (white round mark) of pepstatin A (100 μM) and measured for the survival rate of the cells. The cell survival rate is represented as a percentage with respect to the value of the cells treated with the culture supernatant of the ALVA-41 cells treated with physiological saline. The data is represented as an average value±SD from the data obtained by four separate experiments. […] The cathepsin E activity (on the upper panel) and the cytotoxic activity (on the lower panel) of each column fraction were determined using freshly prepared ALVA-41 cells and a cathepsin E-specific substrate. The cell survival rate of each fraction treated with the protein at a given final concentration is represented as a percentage with respect to the value of the cells treated with physiological saline and as an average value±SD from the data obtained by four separate experiments. The cathepsin E activity is represented as a percentage of the total activity in the culture supernatant, and the data is represented as an average±SD from the data obtained by three separate experiments.

[2] = test system: human leukemia U937 cells; experiment: survival of human leukemia U937 cells; conditions: sole administration, 10 μg/ml
[3] = test system: human prostate cancer ALVA-41 cells; experiment: measurement for apoptosis (morphology, annexin V staining, TUNEL assay), ALVA-41 cells; conditions: for effect of caspase inhibitor on cell death of cancer cells caused by cathepsin E: ALVA-41 cells treated with cathepsin E
Description: The cells were measured for a morphological variation of apoptosis by phase contrast microscopy. The cells of prophase and post-phase apoptosis were detected by annexin V staining and TUNEL assay. In order to carry out the annexin V staining of ALVA-41 cells, the cells were exposed to cathepsin E or cathepsin L for 4 hours and centrifuged. After centrifugation, the separated cells were washed twice with PBS and incubated with fluorescein isothiocyanate-conjugated annexin V for 10 minutes at room temperature in a dark place. The cells that were positive as a result of the annexin V staining were then detected with fluorescence microscope. The TUNEL assay was carried out for the incubated tumor cells using Apop Tag Peroxidase Apoptosis Detection Kit and for heterografts using Tumor TACS In Situ Apoptosis Detection Kit.
as §1

**Q.** For `CC(C)CC(=O)N[C@H](C(=O)N[C@H](C(=O)N[C@@H](CC(C)C)[C@@H](O)CC(=O)N[C@@H](C)C(=O)N[C@@H](CC(C)C)[C@@H](O)CC(=O)O)C(C)C)C(C)C` [pepstatin A, reference compound] (Isovaleryl-VV[Sta]A[Sta]-OH), which “effect on cytotoxicity of cathepsin E against cancer cells” value ([1]; added to culture medium of ALVA-41 cells, pepstatin A 100 μM) is on record?
**A.** suppressed

**Q.** How did the “rate of apoptosis of U937 cells” value [2] turn out when `COc1cc([C@@H]2c3cc4c(cc3[C@@H](O[C@@H]3O[C@@H]5CO[C@@H](C)O[C@H]5[C@H](O)[C@H]3O)[C@H]3COC(=O)[C@H]23)OCO4)cc(OC)c1O` [etoposide] was run?
**A.** approximately 40%

**Q.** Which results are given for cathepsin L?
**A.** number of living cells ([1]; high concentration range (50-100 μg/ml)): decreases the number of the living cells; number of living cells ([1]; low concentration (10 μg/ml)): increase in the number of these living cells; staining with annexin V and TUNEL reagent ([3]; ALVA-41 cells, 100 μg/ml): negative; morphological changes of treated cells ([3]; ALVA-41 cells, microscopy, 100 μg/ml): necrosis-like morphological changes

**Q.** With DEVD-fmlk [reference compound] as the compound, how does the “effect of caspase inhibitor on cell death of cancer cells caused by cathepsin E” value [3] read?
**A.** suppression

**Q.** For cathepsin B, which “number of living cells” value ([1]; neutral pH, 10-100 μg/ml) is on record?
**A.** increased the number of living cells in a concentration-dependent way

**Q.** cathepsin D was tested. Which “number of living cells” value ([1]; neutral pH, 10-100 μg/ml) did it give?
**A.** increased the number of living cells in a concentration-dependent way

**Q.** With `COC(=O)C[C@H](NC(=O)[C@H](C)NC(=O)[C@@H](NC(=O)OCc1ccccc1)C(C)C)C(=O)CF` [z-VAD-fmlk, reference compound] (Cbz-Val-Ala-Asp(OMe)-CH2F) as the compound, how does the “effect of caspase inhibitor on cell death of cancer cells caused by cathepsin E” value [3] read?
**A.** suppression
